Patent US11090313B2, “Methods for inhibiting muscle atrophy” (UNIVERSITY OF IOWA RESEARCH FOUNDATION, priority 2010, dated 2021)
“Also recorded” adds a separate entry of the source.

Experiments:
Format in all cases: in vivo, mouse
[1] = test system: C57BL/6 mice; assay: Fasting-induced muscle atrophy in mice (i.p. dosing, 24 h fast)
Protocol: The mice were then fasted, and after 12 hours of fasting, the mice received a second dose of the compound or vehicle. After 24 hours of fasting, the blood glucose was measured and muscles were harvested. The data shown in FIGS. 6C-6H are means±SEM from ≤16 mice per condition. […] The effects of metformin and ursolic acid on fasting-induced muscle atrophy were also examined, i.e. the effect of 24 h fast (relative to ad lib feeding) on wet weight of lower hindlimb skeletal muscle (bilateral tibialis anterior (“TA” muscle), gastrocnemius, and soleus; see FIGS. 6E-6G). […] In FIGS. 6E-6H, each data point represents one mouse and the horizontal bars denote the means. In FIGS. 6C-6H, P-values were determined using unpaired t-tests.
Mice were then fasted, and after 12 hours of fasting, mice received a second dose of ursolic acid, oleanolic acid, or vehicle. After 24 hours of fasting, lower hindlimb skeletal muscles and liver were harvested and weighed.
To test this, food was withdrawn from mice, and then vehicle, ursolic acid (200 mg/kg) or tomatidine (50 mg/kg) were administered by i.p. injection. Twelve hours later, mice received another i.p. injection of vehicle or the same dose of ursolic acid or tomatidine. Twelve hours later, skeletal muscles were harvested and weighed. […] We next used the same protocol to compare the effects of vehicle (corn oil) and tomatidine (5, 15 and 50 mg/kg).

[2] = test system: C57BL/6 mice; assay: High fat diet model of obesity and metabolic syndrome with ursolic acid; settings: high fat diet containing 0.27% ursolic acid
Protocol: To test this, C57BL/6 mice were given ad libitum access to a high fat diet (HFD; Teklad TD.93075; 55% calories from fat) lacking or containing 0.27% ursolic acid. After 7 weeks, mice from each group were studied for three days in comprehensive lab animal monitoring systems (“CLAMS”; Columbus Instruments). In the CLAMS, mice were maintained on the same diet they had been eating since the beginning of the experiment. Following CLAMS, tissues were harvested for analysis.
The study was carried out as follows: C57BL/6 mice were given ad libitum access to a high fat diet (“HFD”; Teklad TD.93075; 55% calories from fat) lacking or containing 0.27% ursolic acid. After 5 weeks, mice were fasted for 16 h before blood glucose was measured via the tail vein (FIG. 15A). Normal fasting blood glucose: ≤100 mg/dl. (B-I) After 7 weeks, liver and plasma were harvested for analysis (FIGS. 15B-15H).

[3] = test system: gastrocnemius muscle mRNA; assay: Exon expression arrays of gastrocnemius muscle mRNA in mice fed ursolic acid; settings: 0.27% ursolic acid in chow 5 weeks
Protocol: Following harvest, skeletal muscle samples were immediately placed in RNAlater (Ambion) and stored at −80° C. until further use. […] These raw microarray data from humans and mice have been deposited in NCBI's Gene Expression Omnibus (“GEO”) and are accessible through GEO Series accession numbers GSE28016 and GSE28017, respectively. Exon array studies of the effects of fasting on mouse skeletal muscle, and the effects of spinal cord injury on human skeletal muscle were described previously (Adams C M, et al. (2011) Muscle & nerve 43(1):65-75; Ebert S M, et al. (2010) Molecular Endocrinology 24(4):790-799).
To test this hypothesis, an unbiased approach was used, specifically exon expression arrays were used to analyze gastrocnemius muscle mRNA expression in mice that had been fed diets lacking or containing ursolic acid for 5 weeks. […] Each array assessed pooled gastrocnemius RNA from two mice. Stringent criteria were used for ursolic acid-induced effects on mRNA levels (P<0.005), and mRNAs with low levels of expression were disregarded (i.e. only transcripts that were increased to a mean log2 hybridization signal ≥8, or repressed from a mean log2 hybridization signal ≥8 were included).

[4] = ursolic acid 200 mg/kg i.p. twice, 24 h fast, qPCR, normalized to vehicle

Compound: C[C@H]1[C@H](C)CC[C@]2(C(=O)O)CC[C@]3(C)C(=CC[C@@H]4[C@@]5(C)CC[C@H](O)C(C)(C)[C@@H]5CC[C@]43C)[C@H]12 [ursolic acid]
- skeletal muscle weight in fasted mice (fasting-induced muscle atrophy) ([1]; i.p. at 0 and 12 h of 24 h fast, vs vehicle, mg/kg: ursolic acid 200, oleanolic acid 200, metformin 250, tomatidine 50, allantoin 2, tacrine 4, ungerine 2, hippeastrine 2, conessine 2): increased skeletal muscle weight; also recorded: increased muscle weight in fasted mice
- fasting blood glucose ([1]; mice, i.p. at 0 and 12 h of 24 h fast, mg/kg: metformin 250, ursolic acid 200, hippeastrine 2, conessine 2): significantly reduced fasting blood glucose
- increase of muscle weight in fasted mice ([1]; ursolic acid 200 mg/kg i.p. twice, 24 h fast, bilateral TA, gastrocnemius and soleus wet weight): 7±2%
- MuRF1 mRNA levels in TA muscles of fasted mice [1, 4]: reduced fasting levels
- atrogin-1 mRNA levels in TA muscles of fasted mice [1, 4]: reduced fasting levels
- weight gain [2]: dramatically reduced weight gain
- impaired fasting glucose (pre-diabetes) or diabetes ([2]; 5 weeks, 16 h fast): prevented
- brown fat in scapular fat pad ([2]; 7 weeks): increased brown fat
- energy expenditure (CLAMS) ([2]; 7 weeks): increased energy expenditure
- grip strength ([2]; 7 weeks): increased grip strength
- hepatic changes of fatty liver disease (liver weight, hepatocellular lipid accumulation, plasma AST, ALT, alkaline phosphatase) ([2]; 7 weeks): prevented all of these hepatic changes
- muscle mass ([2]; 7 weeks): increased
- obesity-related hypercholesterolemia (plasma cholesterol) ([2]; 7 weeks): reduced obesity-related hypercholesterolemia
- retroperitoneal and epididymal fat ([2]; 7 weeks): reduced retroperitoneal and epididymal fat
- white fat in scapular fat pad ([2]; 7 weeks): reduced white fat
- levels of mRNAs encoding myostatin, twist or myogenin ([3]; gastrocnemius): did not alter levels of mRNAs encoding myostatin
- levels of IGF1 exons (exons 2-6) ([3]; gastrocnemius exon arrays): increased levels of all measured IGF1 exons
- 2310016M24Rik mRNA Change (mean log2, ursolic acid diet minus control diet) ([3]; mice, gastrocnemius): 0.12 log2
- 2610507B11Rik mRNA Change (mean log2, ursolic acid diet minus control diet) ([3]; mice, gastrocnemius): 0.14 log2
- Acadm mRNA Change (mean log2, ursolic acid diet minus control diet) ([3]; mice, gastrocnemius): −0.11 log2
- Adprhl1 mRNA Change (mean log2, ursolic acid diet minus control diet) ([3]; mice, gastrocnemius): −0.26 log2
- Ahsa2 mRNA Change (mean log2, ursolic acid diet minus control diet) ([3]; mice, gastrocnemius): 0.18 log2
- Arfgap2 mRNA Change (mean log2, ursolic acid diet minus control diet) ([3]; mice, gastrocnemius): 0.30 log2
- Asb5 mRNA Change (mean log2, ursolic acid diet minus control diet) ([3]; mice, gastrocnemius): 0.21 log2
- BC004004 mRNA Change (mean log2, ursolic acid diet minus control diet) ([3]; mice, gastrocnemius): 0.06 log2
- C3 mRNA Change (mean log2, ursolic acid diet minus control diet) ([3]; mice, gastrocnemius): 0.70 log2
- Cacna1s mRNA Change (mean log2, ursolic acid diet minus control diet) ([3]; mice, gastrocnemius): −0.22 log2
- Cd24a mRNA Change (mean log2, ursolic acid diet minus control diet) ([3]; mice, gastrocnemius): 0.28 log2
- Ctsb mRNA Change (mean log2, ursolic acid diet minus control diet) ([3]; mice, gastrocnemius): 0.16 log2
- D0H4S114 mRNA Change (mean log2, ursolic acid diet minus control diet) ([3]; mice, gastrocnemius): 0.15 log2
- D4Wsu53e mRNA Change (mean log2, ursolic acid diet minus control diet) ([3]; mice, gastrocnemius): −0.18 log2
- Ddit4l mRNA Change (mean log2, ursolic acid diet minus control diet) ([3]; mice, gastrocnemius): −0.32 log2
- Eef1e1 mRNA Change (mean log2, ursolic acid diet minus control diet) ([3]; mice, gastrocnemius): 0.15 log2
- Eif4g3 mRNA Change (mean log2, ursolic acid diet minus control diet) ([3]; mice, gastrocnemius): −0.12 log2
- Fbp2 mRNA Change (mean log2, ursolic acid diet minus control diet) ([3]; mice, gastrocnemius): 0.37 log2
- Fbxo32 (Atrogin-1) mRNA Change (mean log2, ursolic acid diet minus control diet) ([3]; mice, gastrocnemius): −0.35 log2
- Fhl3 mRNA Change (mean log2, ursolic acid diet minus control diet) ([3]; mice, gastrocnemius): 0.31 log2
- Fmo1 mRNA Change (mean log2, ursolic acid diet minus control diet) ([3]; mice, gastrocnemius): 0.47 log2
- Foxn3 mRNA Change (mean log2, ursolic acid diet minus control diet) ([3]; mice, gastrocnemius): −0.09 log2
- Gfm1 mRNA Change (mean log2, ursolic acid diet minus control diet) ([3]; mice, gastrocnemius): 0.12 log2
- Ggct mRNA Change (mean log2, ursolic acid diet minus control diet) ([3]; mice, gastrocnemius): 0.24 log2
- Ghitm mRNA Change (mean log2, ursolic acid diet minus control diet) ([3]; mice, gastrocnemius): 0.05 log2
- Golga4 mRNA Change (mean log2, ursolic acid diet minus control diet) ([3]; mice, gastrocnemius): −0.14 log2
- Gpx1 mRNA Change (mean log2, ursolic acid diet minus control diet) ([3]; mice, gastrocnemius): 0.36 log2
- H19 mRNA Change (mean log2, ursolic acid diet minus control diet) ([3]; mice, gastrocnemius): 0.39 log2
- Hipk2 mRNA Change (mean log2, ursolic acid diet minus control diet) ([3]; mice, gastrocnemius): 0.38 log2
- Hk2 mRNA Change (mean log2, ursolic acid diet minus control diet) ([3]; mice, gastrocnemius): 0.26 log2
- Hspb8 mRNA Change (mean log2, ursolic acid diet minus control diet) ([3]; mice, gastrocnemius): 0.32 log2
- Hsph1 mRNA Change (mean log2, ursolic acid diet minus control diet) ([3]; mice, gastrocnemius): 0.30 log2
- Igf1 mRNA Change (mean log2, ursolic acid diet minus control diet) ([3]; mice, gastrocnemius): 0.56 log2
- Klhl31 mRNA Change (mean log2, ursolic acid diet minus control diet) ([3]; mice, gastrocnemius): −0.09 log2
- Krr1 mRNA Change (mean log2, ursolic acid diet minus control diet) ([3]; mice, gastrocnemius): 0.15 log2
- Lsm14a mRNA Change (mean log2, ursolic acid diet minus control diet) ([3]; mice, gastrocnemius): 0.18 log2
- Lum mRNA Change (mean log2, ursolic acid diet minus control diet) ([3]; mice, gastrocnemius): 0.61 log2
- Lyz2 mRNA Change (mean log2, ursolic acid diet minus control diet) ([3]; mice, gastrocnemius): 0.71 log2
- Mlec mRNA Change (mean log2, ursolic acid diet minus control diet) ([3]; mice, gastrocnemius): −0.19 log2
- Mrpl46 mRNA Change (mean log2, ursolic acid diet minus control diet) ([3]; mice, gastrocnemius): 0.15 log2
- Musk mRNA Change (mean log2, ursolic acid diet minus control diet) ([3]; mice, gastrocnemius): 0.31 log2
- Nampt mRNA Change (mean log2, ursolic acid diet minus control diet) ([3]; mice, gastrocnemius): 0.41 log2
- Ndufaf4 mRNA Change (mean log2, ursolic acid diet minus control diet) ([3]; mice, gastrocnemius): 0.14 log2
- Ndufs2 mRNA Change (mean log2, ursolic acid diet minus control diet) ([3]; mice, gastrocnemius): 0.14 log2
- Ndufs4 mRNA Change (mean log2, ursolic acid diet minus control diet) ([3]; mice, gastrocnemius): 0.14 log2
- Nnt mRNA Change (mean log2, ursolic acid diet minus control diet) ([3]; mice, gastrocnemius): −0.24 log2
- Npc1 mRNA Change (mean log2, ursolic acid diet minus control diet) ([3]; mice, gastrocnemius): 0.22 log2
- Nrap mRNA Change (mean log2, ursolic acid diet minus control diet) ([3]; mice, gastrocnemius): −0.14 log2
- Ostn mRNA Change (mean log2, ursolic acid diet minus control diet) ([3]; mice, gastrocnemius): 0.43 log2
- Paip2b mRNA Change (mean log2, ursolic acid diet minus control diet) ([3]; mice, gastrocnemius): −0.16 log2
- Parp3 mRNA Change (mean log2, ursolic acid diet minus control diet) ([3]; mice, gastrocnemius): 0.32 log2
- Pde4dip mRNA Change (mean log2, ursolic acid diet minus control diet) ([3]; mice, gastrocnemius): −0.18 log2
- Pdha1 mRNA Change (mean log2, ursolic acid diet minus control diet) ([3]; mice, gastrocnemius): 0.18 log2
- Pnn mRNA Change (mean log2, ursolic acid diet minus control diet) ([3]; mice, gastrocnemius): −0.18 log2
- Prdx5 mRNA Change (mean log2, ursolic acid diet minus control diet) ([3]; mice, gastrocnemius): 0.10 log2
- Psma2 mRNA Change (mean log2, ursolic acid diet minus control diet) ([3]; mice, gastrocnemius): 0.15 log2
- Sepp1 mRNA Change (mean log2, ursolic acid diet minus control diet) ([3]; mice, gastrocnemius): 0.35 log2
- Sepx1 mRNA Change (mean log2, ursolic acid diet minus control diet) ([3]; mice, gastrocnemius): 0.28 log2
- Sfpq mRNA Change (mean log2, ursolic acid diet minus control diet) ([3]; mice, gastrocnemius): −0.18 log2
- Sfrs5 mRNA Change (mean log2, ursolic acid diet minus control diet) ([3]; mice, gastrocnemius): −0.22 log2
- Smox mRNA Change (mean log2, ursolic acid diet minus control diet) ([3]; mice, gastrocnemius): 0.81 log2
- Sod2 mRNA Change (mean log2, ursolic acid diet minus control diet) ([3]; mice, gastrocnemius): 0.12 log2
- Sqstm1 mRNA Change (mean log2, ursolic acid diet minus control diet) ([3]; mice, gastrocnemius): 0.12 log2
- Ssr4 mRNA Change (mean log2, ursolic acid diet minus control diet) ([3]; mice, gastrocnemius): 0.14 log2
- Trappc2l mRNA Change (mean log2, ursolic acid diet minus control diet) ([3]; mice, gastrocnemius): 0.16 log2
- Trip10 mRNA Change (mean log2, ursolic acid diet minus control diet) ([3]; mice, gastrocnemius): 0.23 log2
- Tyrobp mRNA Change (mean log2, ursolic acid diet minus control diet) ([3]; mice, gastrocnemius): 0.69 log2
- Ube2l3 mRNA Change (mean log2, ursolic acid diet minus control diet) ([3]; mice, gastrocnemius): 0.16 log2
- Vps29 mRNA Change (mean log2, ursolic acid diet minus control diet) ([3]; mice, gastrocnemius): 0.20 log2
